Experimental data reported in patent US10441537B2, “Unit doses, aerosols, kits, and methods for treating heart conditions by pulmonary administration” (InCarda Therapeutics, Inc., priority 2017, dated 2019).

Columns and labels:
[1] = test system: induced atrial fibrillation; test: ACh and burst-pacing-induced AF duration in pigs (Example 5); format: in vivo; conditions: IT 1.5 mg/kg
Protocol: At one min after intrapericardial administration of ACh (1 ml of 100 mM), burst pacing was performed to initiate AF in the control cohort (FIG. 60). In the experimental cohort, after ACh and burst-pacing-induced AF, a stable period of 2 min of AF was allowed (FIG. 60). […] Table 12; FIG. 61).

physchem = conditions: water
[2] = test system: induced atrial fibrillation; test: Conversion of phenylephrine/burst-pacing-induced AF in anesthetized beagle dogs (Example 7); format: in vivo; conditions: for Time to NSR: IT
Protocol: The study was carried out in anesthetized healthy adult beagle dogs with induced AF. Acute AF was induced using the combination of phenylephrine ([…]), to increase heterogeneity of atrial refractory periods via increased loading and through a baroreceptor-mediated increase in parasympathetic efferent activity, and right atrial burst pacing (40-50 Hz for ˜15 min). The AF induced using this method was, in general, stable for more than 30 mins.
The cardiac rhythm was monitored prior to, during AF, and up to 10 min post-dosing and/or until conversion to NSR.

healthy volunteers [3] = test: Phase 1 study: lung spirometry tests; format: in vivo, human
Protocol: (§1) Pulmonary safety was assessed by performing lung spirometry tests and measuring peripheral oxygen saturation (SpO2%) prior to dosing and at various times after completion of the inhalation. Lung spirometry tests evaluated all lung function parameters, including forced vital capacity (FVC), forced expiratory volume in 1 second (FEV1), peak expiratory flow (PEF), and forced expiratory flow at 25% and 75% intervals (FEF25-75). Auscultation and respiration rate were also measured prior to dosing and at various times after inhalation. Chest x-rays were performed on subjects before and after flecainide inhalation.

healthy volunteers [4] = test: Phase 1 study: ECG pharmacodynamics (QRS, PR, QTcF, T-wave) and PK-PD; format: in vivo, human
Protocol: The ECG recordings included: 1) Continuous real-time ECG telemetry for observation of patient safety starting at 12 hours pre-dose and continuing for 12 hours post-dose, 2) 12-lead ECGs for immediate review by medical staff to ascertain the safety of the procedures and drug administration were recorded at pre-specified (or any time as needed) before dosing (pre-dose) and after dosing (post-dose), and 3) continuous 12-lead ECG (cECG, iCardiac Holter monitoring) was recorded for 24 hours, starting 1 hour prior to dosing and up to 24 hours post dosing.
As expected from non-steady state conditions, and shown in FIGS. 84A and 84B, a temporal dissociation is observed between ([Flec]plasma) and ΔQRS. […] The hysteresis between concentrations and responses (QRS) applies for both routes of administration, IV and inhalation.

healthy volunteers [5] = test: Phase 1 study: peripheral oxygen saturation (SpO2%); format: in vivo, human; conditions: for Oxygen Saturation (SpO2%), Mean: Predose
Protocol: as §1

[6] = test system: anesthetized Yorkshire pigs; test: PD responses (HR, MAP, ECG intervals) in anesthetized Yorkshire pigs, IV vs IT; format: in vivo
Protocol: All catheters were positioned under fluoroscopic guidance. […] Data are reported as means+ SEM. Statistical analyses were performed using the SAS system (9.4) to apply ANOVA with a post-hoc Dunnett's test. Statistical significance was assumed at p<0.05.

[7] = test system: induced atrial fibrillation; test: Induced atrial fibrillation model in anesthetized dogs, intratracheal (IT) administration; format: in vivo
Protocol: Atrial Fibrillation Model: Anesthesia/Surgical Preparation: A venous catheter was placed in a peripheral vessel (i.e., cephalic) for administration of anesthetic. […] Following induction, animals were endotracheally intubated and mechanically ventilated (˜12 breaths/minute with a tidal volume of 200-300 mL). Subsequently, a cut-down on a jugular vein permitted introduction of a pacing lead into the right atrium. Transthoracic electrodes forming ECG lead II were placed. For test/vehicle article delivery, a 4F catheter was introduced through the trachea and wedged into a small airway, and a venous catheter was placed in a peripheral vessel (i.e., cephalic). […] Approximately 5 min after administration of this parasympathomimetic was started; the following experiments were performed: […] Observations were made for up to 10 minutes. […] Vehicle was only water.

## O=C(NCC1CCCCN1)c1cc(OCC(F)(F)F)ccc1OCC(F)(F)F (stereo not shown) [flecainide, flecainide acetate]
[1]; 30-min window of observation
  recurrence of AF after restoration of sinus rhythm: no recurrence of AF occurred
[1]; Pig 236 (No drug 10)
  AF duration: 4 min
[1]; Pig 238 (No drug 12)
  AF duration: 3 min
[1]; Pig 239 (No drug 12)
  AF duration: 3 min
physchem
  solubility: ~30 mg/mL
[2]; Animal 002, dose 0.75 (0.25 + 0.5) mg/kg
  Time to NSR: 52 s
[2]; Animal 003, dose 0.75 mg/kg
  Time to NSR: 12 s
[2]; Animal 004, dose 0.75 mg/kg
  Time to NSR: 23 s
[2]; Animal 005, dose 0.75 mg/kg
  Time to NSR: 62 s
[2]; Animal 006, dose 1.0 (0.75 + 0.25) mg/kg
  Time to NSR: 83 s
[2]; IV compared with IT administration
  effects in BP, VR and LV dP/dtmax upon conversion, IV vs IT: greater effects in BP, VR and LV dP/dtmax
Healthy volunteers [3]; 20 mg eTLD, 24 hours Post-dose
  FEF25-75, Mean: 5.40 L/s
Healthy volunteers [3]; 40 mg eTLD, 12 hours Pre-dose
  FEF25-75, Mean: 5.00 L/s
Healthy volunteers [3]; 40 mg eTLD, 24 hours Post-dose
  FEF25-75, Mean: 4.80 L/s
Healthy volunteers [3]; Cohorts 1, 2, 3 and 5
  standard lung spirometry measurements (FEV1, PEF, FVC, FEF 25-75) and peripheral O2 saturation: normal before and after
Healthy volunteers [4]; 30 min after completion of inhalation, Cohorts 1-3
  QRS interval duration: returned to near pre-dose levels
Healthy volunteers [4]; IV infusion 2 mg/kg
  T-wave morphology: T-wave notching
  non-specific intraventricular conduction delay: 3 of 6 subjects
Healthy volunteers [4]; eTLD 30 mg vs ˜150 mg IV
  smaller changes in QRS interval duration, inhalation vs IV infusion: 2.7 fold
Healthy volunteers [4]; in vivo, iv
  lower plasma concentration by inhalation for QRS prolongation as after IV (6.2/2.7): 2.3 fold
Healthy volunteers [4]; inhalation 20, 30 and 40 mg eTLD
  T-wave morphology: No changes in T-wave morphology
Healthy volunteers [4]; inhalation vs IV
  lower plasma level after inhalation at near-equal ΔQRS: 2.6 fold
Healthy volunteers [4]; inhaled 20 mg eTLD, between 1 and 3 minutes after end of inhalation
  mean ΔQRS: small increase of mean ΔQRS
Healthy volunteers [4]; inhaled 30 mg eTLD, 5 min after completion of inhalation
  PR interval duration prolonged from start of inhalation: 12 ms
Healthy volunteers [4]; inhaled 40 mg eTLD, Cohort 2
  QRS duration: transient increase between 1 and 3 minutes post-dosing
Healthy volunteers [4]; inhaled 20 or 40 mg eTLD
  changes of the PR interval duration: Minimal or no changes
Healthy volunteers [4]; oral inhalation eTLD of 30 mg
  non-specific intraventricular conduction delay: not observed in any of the same subjects
Healthy volunteers [4]; subject R222, 40 mg eTLD, 3 min post-dosing
  decrease of R-wave amplitude (QRSa): 400 μV
Healthy volunteers [4]; subject R222, inhaled 40 mg eTLD, 1 minute post-dosing
  increase of QRS duration (QRSd): 10 ms
Healthy volunteers [5]; 20 mg eTLD, 15 min Postdose
  SpO2%, Mean: 97%
Healthy volunteers [5]; 20 mg eTLD, 30 min Postdose
  SpO2%, Mean: 97%
Healthy volunteers [5]; 20 mg eTLD, 45 min Postdose
  SpO2%, Mean: 97%
Healthy volunteers [5]; 20 mg eTLD, 60 min Postdose
  SpO2%, Mean: 97%
Healthy volunteers [5]; 20 mg eTLD, 75 min Postdose
  SpO2%, Mean: 98%
Healthy volunteers [5]; 20 mg eTLD, 90 min Postdose
  SpO2%, Mean: 98%
Healthy volunteers [5]; 20 mg eTLD, 105 min Postdose
  SpO2%, Mean: 97%
Healthy volunteers [5]; 20 mg eTLD, 120 min Postdose
  SpO2%, Mean: 98%
Healthy volunteers [5]; 40 mg eTLD, 15 min Postdose
  SpO2%, Mean: 96%
Healthy volunteers [5]; 40 mg eTLD, 30 min Postdose
  SpO2%, Mean: 97%
Healthy volunteers [5]; 40 mg eTLD, 45 min Postdose
  SpO2%, Mean: 96%
Healthy volunteers [5]; 40 mg eTLD, 60 min Postdose
  SpO2%, Mean: 96%
Healthy volunteers [5]; 40 mg eTLD, 75 min Postdose
  SpO2%, Mean: 97%
Healthy volunteers [5]; 40 mg eTLD, 90 min Postdose
  SpO2%, Mean: 97%
Healthy volunteers [5]; 40 mg eTLD, 105 min Postdose
  SpO2%, Mean: 97%
Healthy volunteers [5]; 40 mg eTLD, 120 min Postdose
  SpO2%, Mean: 97%
Healthy volunteers [5]; Cohorts 1 and 2
  pre-dose and post-dose values for SpO2 (normal range): 97-98%
Healthy volunteers [5]; inhaled 20 mg eTLD, Cohort 1 (n=6)
  Oxygen Saturation (SpO2%), Mean: 98%
Healthy volunteers [5]; inhaled 40 mg eTLD, Cohort 2 (n=10)
  Oxygen Saturation (SpO2%), Mean: 97%
[6]; IT 0.75 mg/kg, baseline 111±3.6 mmHg, p=0.9112
  mean arterial pressure: not significantly altered
[6]; IT 0.75 mg/kg, baseline 111±6.4 bpm, p=0.9970
  heart rate: not significantly altered
[6]; IT 0.75 mg/kg, baseline 130±5.3 ms, p=0.9351
  PR interval: not significantly changed
[6]; IT 0.75 mg/kg, baseline 354±12.0 ms, p=0.7605
  JTc interval: not significantly changed
[6]; IT 0.75 mg/kg, baseline 435±12.9 ms, p=0.5505
  QTc interval: not significantly changed
[6]; IT 1.5 mg/kg, baseline 108±9.4 mmHg, p=0.9894
  mean arterial pressure: not significantly altered
[6]; IT 1.5 mg/kg, baseline 118±13.2 bpm, p=0.9999
  heart rate: not significantly altered
[6]; IT 1.5 mg/kg, baseline 127±2.3 ms, p=0.0819
  PR interval: not significantly changed
[6]; IT 1.5 mg/kg, baseline 364±11.5 ms, p=0.9968
  JTc interval: not significantly changed
[6]; IT 1.5 mg/kg, baseline 436±7.1 ms, p=0.1510
  QTc interval: not significantly changed
[6]; IV 2 mg/kg, baseline 103±1.9 bpm, ANOVA p=0.9936, 30 min
  heart rate: not significantly altered
[6]; IV 2 mg/kg, baseline 105±6.7 mmHg, p=0.8852
  mean arterial pressure: not significantly altered
[6]; IV 2 mg/kg, baseline 127±7.8 ms, p=0.5161
  PR interval: not significantly changed
[6]; IV 2 mg/kg, baseline 367±7.4 ms, p=0.9686
  JTc interval: not significantly changed
[6]; IV 2 mg/kg, baseline 442±7.9 ms, p=0.35
  QTc interval: not significantly changed
[7]; 2 mg/kg body weight (FIG. 12)
  ECG trace: Afib conversion: Afib converting as soon as dosing occurred
[7]; 4 mg/kg body weight, intra-tracheal instillation (FIG. 11)
  ECG trace: Afib conversion: Afib converting into normal sinus rhythm
[7]; IT bolus
  conversion of Atrial Fibrillation to normal sinus rhythm: rapidly converted the Atrial Fibrillation to normal sinus rhythm
[7]; dog, in vivo
  cardiovascular effect when given by intratracheal instillation (summary): clear cardiovascular effect
[7]; large pulmonary doses
  ventricular rate: slower ventricular rates
[7]; pulmonary dose 2-4 mg/kg
  drop in mean arterial pressure: None to minimal drop in mean arterial pressure
[7]; pulmonary dose 2-4 mg/kg body weight
  conversion of induced atrial fibrillation to normal sinus rhythm: converted the induced atrial fibrillation to normal sinus rhythm
